According to paper PMC1950228, “Organosilicon-Containing Thiazole Derivatives as Potential Lipoxygenase Inhibitors and Anti-Inflammatory Agents” (Bioinorganic Chemistry and Applications, 2007):
Values after ≈ are worked out from the molar mass of the structure shown. Values joined by “and” are separate entries in the source; they are usually repeats but may differ in a detail not shown here. Equal entries are not always repeated. “Also recorded” adds a separate entry of the source. Where two headings read alike, the source gives them in different places. Marks after values point to notes of the source that are not given here.

Tests used:
[1] = test system: carrageenin mice paw edema (CPE); test: Carrageenin-induced mice paw edema inhibition; format: in vivo, AKR or A mice
Protocol: AKR or A mice (20–30 g, groups of ten) of both sexes were used. Females pregnant were excluded. A single dose of 0.2 mmol/kg body weight of compounds 12, 16, 20, 21 and 0.01 mmol/kg of compound 22 or 0.013 mmol/kg of compound 14 suspended in water with few drops of Tween 80 was administered intraperitoneally simultaneously to the intradermally injection of 0.05 mL carrageenin in the right hind paw. Indomethacin was used as a standard diluted agent.
Organosilicon-containing compounds 12, 14, 16, 20–22 were examined in vivo for their anti-inflammatory activity using the carrageenin mice paw edema (CPE) as a model of inflammation. The in vivo anti-inflammatory effects of the tested thiazole derivatives were assessed by using the functional model of carrageenin-induced […] paw edema and are presented in Table 1 as percentage of weight increase at the right hind paw in comparison to the uninjected left hind paw.

[2] = test system: HT-1080 (human fibrosarcoma); details: cited from earlier work
[3] = biological target: T1, soybean lipoxygenase (LOX) (Glycine max, UniProt P08170); test: Soybean lipoxygenase inhibition (UV absorbance at 234 nm); format: biochemical; details: for % inhibition LOX: at 0.1 mmol
T1 sequence (P08170 1-839): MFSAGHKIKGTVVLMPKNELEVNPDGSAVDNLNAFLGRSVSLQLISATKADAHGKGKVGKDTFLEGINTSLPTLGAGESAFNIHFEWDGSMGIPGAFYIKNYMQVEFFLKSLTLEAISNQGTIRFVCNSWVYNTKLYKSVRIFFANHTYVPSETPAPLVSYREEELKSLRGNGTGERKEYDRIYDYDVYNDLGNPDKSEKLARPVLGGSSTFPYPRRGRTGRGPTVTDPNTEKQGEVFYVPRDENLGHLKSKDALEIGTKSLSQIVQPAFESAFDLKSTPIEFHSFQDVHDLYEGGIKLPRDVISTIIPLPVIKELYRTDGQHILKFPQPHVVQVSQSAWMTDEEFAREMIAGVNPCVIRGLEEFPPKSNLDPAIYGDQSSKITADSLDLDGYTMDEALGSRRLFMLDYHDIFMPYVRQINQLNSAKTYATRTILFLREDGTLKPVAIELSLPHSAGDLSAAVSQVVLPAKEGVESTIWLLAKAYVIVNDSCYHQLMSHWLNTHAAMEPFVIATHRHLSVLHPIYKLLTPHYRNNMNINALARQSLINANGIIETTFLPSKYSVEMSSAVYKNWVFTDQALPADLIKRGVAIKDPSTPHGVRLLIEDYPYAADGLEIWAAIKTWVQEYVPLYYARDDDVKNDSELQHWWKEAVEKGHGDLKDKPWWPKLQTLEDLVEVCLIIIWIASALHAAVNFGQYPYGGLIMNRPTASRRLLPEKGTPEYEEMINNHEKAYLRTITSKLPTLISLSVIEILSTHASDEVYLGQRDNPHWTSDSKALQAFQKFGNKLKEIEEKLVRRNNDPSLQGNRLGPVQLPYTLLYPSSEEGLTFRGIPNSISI
Protocol: The tested compounds dissolved in DMSO or ethanol (concentrations ranged from 0.1 to 1 mM) were incubated at room temperature with sodium linoleate (0.1 mmol) and 0.2 mL of enzyme solution (250 U/mL in saline).
While one may not extrapolate the quantitative results of this assay to the inhibition of mammalian 5-LOX, it has been shown that inhibition of plant lipoxygenase activity by NSAIDs is qualitatively similar to their inhibition of the rat mast cell lipoxygenase and may be used as a simple qualitative screen for such activity. […] The IC50 values for compounds 14, 16, 17, 19, and 22 were determined.

[4] = test system: HT-1080 (human fibrosarcoma); test: In vitro cytotoxicity, HT-1080; format: cell-based; details: for CC50: Homo sapiens; for stimulation of HT-1080 cell growing: CV, at all studied concentrations; for LC50 HT-1080: human fibrosarcoma, coloration not stated
Protocol: (§1) Monolayer tumour cell lines MG-22A (mouse hepatoma), HT-1080 (human fibrosarcoma), and normal mouse fibroblasts (NIH 3T3) were cultivated for 72 hours in DMEM standard medium (Sigma) without an indicator and antibiotics. After the ampoule had thawed, cells from one to four passages were used in three concentrations of test compound: 1, 10 and 100 μg mL^−1. The control cells and cells with tested compounds in the range of 2–5* 10^4 cell mL^−1 concentration (depending on line nature) were placed on separate 96 wells plates. Solutions containing test compounds were diluted and added in wells to give the final concentrations. Control cells were treated in the same manner only in the absence of test compounds. Plates were cultivated for 72 hours. The number of survived cells was determined using crystal violet (CV), 3-(4,5-dimethylthiazol-2-yl)-2,5-diphenyltetrazolinium bromide (MTT), or neutral red (NR) coloration which was assayed by multiscan spectrophotometer. The quantity of alive cells on control plate was taken in calculations for 100% [22, 23]. The LC50 was calculated using Graph Pad Prism 3.0 program, r < .05. Concentration of NO was determined according to [23].

MG-22A (mouse hepatoma) [5] = test: In vitro cytotoxicity, MG-22A; format: cell-based; details: for CC50: Mus musculus, MG-22A; for LC50 MG-22A: mouse hepatoma, coloration not stated
Protocol: as §1

[6] = In vitro cytotoxicity, NIH 3T3 (neutral red) and LD50; format: cell-based; details: for CC50 at 72 h: 50% cell killing, neutral red coloration, normal mouse fibroblasts, read-out: LC50 NIH 3T3 NR; for LD50: mouse, NIH 3T3, method not described
Protocol: The control cells and cells with tested compounds in the range of 2–5* 10^4 cell mL^−1 concentration (depending on line nature) were placed on separate 96 wells plates. […] Control cells were treated in the same manner only in the absence of test compounds. Plates were cultivated for 72 hours. The number of survived cells was determined using crystal violet (CV), 3-(4,5-dimethylthiazol-2-yl)-2,5-diphenyltetrazolinium bromide (MTT), or neutral red (NR) coloration which was assayed by multiscan spectrophotometer. The quantity of alive cells on control plate was taken in calculations for 100% [22, 23]. The LC50 was calculated using Graph Pad Prism 3.0 program, r < .05. Concentration of NO was determined according to [23].

[7] = test system: HT-1080 (human fibrosarcoma); test: Intracellular NO generation, HT-1080; format: cell-based; details: CV coloration
Protocol: as §1

MG-22A (mouse hepatoma) [8] = test: Intracellular NO generation, MG-22A; format: cell-based; details: CV coloration
Protocol: as §1

[9] = dose 0.2 mmol/kgbw, intraperitoneally
[10] = HT-1080, 72 h, read-out: LC50 HT-1080 MTT
[11] = 72 h, read-out: LC50 MG-22A MTT
[12] = soybean lipoxygenase, sodium linoleate 0.1 mmol, read-out: IC50 LOX
[13] = HT-1080, 50% cell killing, MTT coloration, 72 hours, read-out: LC50 HT-1080 MTT
[14] = HT-1080, 50% cell killing, crystal violet coloration, 72 hours, read-out: LC50 HT-1080 CV
[15] = 50% cell killing, MTT coloration, 72 hours, read-out: LC50 MG-22A MTT
[16] = 50% cell killing, crystal violet coloration, 72 hours, read-out: LC50 MG-22A CV
[17] = NIH 3T3 normal mouse fibroblasts

C[Si](C)(C)OC1CCN(CCC(=O)Nc2nccs2)CC1 [Compound 21, 3-(4-trimethylsiloxypiperidin-1-yl)-N-(thiazol-2-yl)-propionamide]
% carrageenin mice paw edema inhibition (CPE%) [1, 9]: 57.2% and 57.2 ^* %
LC50 human fibrosarcoma [2]: 44 µg/mL (≈ 134 µM)

Cc1ncsc1CCO[Si](C)(C)C [Compound 12, 4-methyl-5-(β-trimethylsiloxyethyl)-thiazole]
% carrageenin mice paw edema inhibition (CPE%) [1, 9]: 24 ^** %
% inhibition LOX ([3]; soybean lipoxygenase): 9.1%

O=C(CCN1CCC(O)CC1)Nc1nccs1 [Compound 10, 3-(4-hydroxypiperidin-1-yl)-N-(thiazol-2-yl)-propionamide]
LC50 human fibrosarcoma ([2]; HT-1080, coloration not stated, previously published data ref 17): 48 µg/mL (≈ 188 µM)

CCCCCCCCCCCCCCc1sc(NC(=O)CN2CCC(O[Si](C)(C)C)CC2)nc1-c1ccccc1 [Compound 20, 2-(4-trimethylsiloxypiperidin-1-yl)-N-(4-phenyl-5-tetradecylthi-azol-2-yl)-acetamide]
% carrageenin mice paw edema inhibition (CPE%) [1, 9]: 38.3 ^* %
lower lipoxygenase inhibiting properties in comparison with compound 18 ([3]; difference of % inhibition at 0.1 mmol): 26%
% inhibition LOX ([3]; soybean lipoxygenase): 40.8%

COc1ccc(-c2csc(NC(=O)CN3CCC(O[Si](C)(C)C)CC3)n2)cc1 [Compound 19, 2-(4-trimethylsilyloxypiperidin-1-yl)-N-[4-(p-methoxyphenyl)-thiazol-2-yl]-acetamide]
IC50 [3]: 10 µM
CC50 [4, 10]: 100 µg/mL (≈ 238 µM)
CC50 ([4]; HT-1080, read-out: LC50 HT-1080): > 100 µg/mL
CC50 (MG-22A (mouse hepatoma) [5]; 72 h, read-out: LC50 MG-22A CV): 21 µg/mL
CC50 (MG-22A (mouse hepatoma) [5]; [11]): 13 µg/mL
CC50 (MG-22A (mouse hepatoma) [5]; read-out: LC50 MG-22A): 30 µM
CC50 at 72 h [6]: 72 µg/mL (≈ 172 µM)
LD50 [6]: 839 mg/kg
NO HT-1080 CV [7]: 27
NO MG-22A CV (MG-22A (mouse hepatoma) [8]): 122

COc1ccc2c(c1)c(CC(=O)O)c(C)n2C(=O)c1ccc(Cl)cc1 [Indomethacin, reference compound]
% carrageenin mice paw edema inhibition (CPE%) ([1]; standard, dose 0.1 mmol/kgbw): 57.4%

C[Si](C)(C)OC1CCN(CC(=O)Nc2nccs2)CC1 [Compound 17, 2-(4-trimethylsiloxypiperidin-1-yl)-N-(thiazol-2-yl)-acetamide]
IC50 [3]: 350 µM
stimulation of HT-1080 cell growing [4]: up to 55%
CC50 [4, 10]: > 100 µg/mL
LC50 HT-1080 [4]: do not exhibit cytotoxic properties; also recorded: inactive
decrease of MG-22A cell growing (MG-22A (mouse hepatoma) [5]; MTT coloration): up to 40%
CC50 (MG-22A (mouse hepatoma) [5]; [11]): > 100 µg/mL
LC50 MG-22A (MG-22A (mouse hepatoma) [5]): do not exhibit cytotoxic properties; also recorded: inactive
CC50 at 72 h [6]: > 100 µg/mL
LD50 [6]: 2130 mg/kg
NO HT-1080 CV [7]: 11
NO MG-22A CV (MG-22A (mouse hepatoma) [8]): 23

C[Si](C)(C)OCc1csc(-c2ccccc2)n1 [Compound 16, 2-phenyl-4-trimethylsilox-ymethyl-thiazole]
% carrageenin mice paw edema inhibition (CPE%) [1, 9]: 47.6 ^* %
IC50 [3, 12]: 470 µM

COc1ccc(-c2csc(NC(=O)CN3CCC(O)CC3)n2)cc1 [Compound 8, 2-(4-hy-droxypiperidin-1-yl)-N-[4-(p-methoxyphenyl)-thiazol-2-yl]-acetamide]
CC50 [4, 13]: 100 µg/mL (≈ 288 µM)
CC50 [4, 14]: > 100 µg/mL
CC50 (MG-22A (mouse hepatoma) [5]; [15]): 16 µg/mL
CC50 (MG-22A (mouse hepatoma) [5]; [16]): 17 µg/mL
CC50 at 72 h [6, 17]: > 100 µg/mL
LD50 [6]: 1110 mg/kg
NO HT-1080 CV [7]: 8
NO MG-22A CV (MG-22A (mouse hepatoma) [8]): 75

C[Si](C)(C)OCc1csc(N)n1 [Compound 14, 2-amino-4-trimethylsiloxymethyl-thiazole]
% carrageenin mice paw edema inhibition (CPE%) ([1]; dose 0.013 mmol/kg, intraperitoneally): 35.5 ^* %
IC50 [3, 12]: 100 µM

O=C(CN1CCC(O)CC1)Nc1nccs1 [Compound 6, 2-(4-hydroxypiperidin-1-yl)-N-(thiazol-2-yl)-acetnamide]
stimulation of HT-1080 cell growing [4]: up to 55%
CC50 [4, 13]: > 100 µg/mL
CC50 [4, 14]: > 100 µg/mL
LC50 HT-1080 [4]: do not exhibit cytotoxic properties
decrease of MG-22A cell growing (MG-22A (mouse hepatoma) [5]; MTT coloration): up to 40%
CC50 (MG-22A (mouse hepatoma) [5]; [15]): > 100 µg/mL
CC50 (MG-22A (mouse hepatoma) [5]; [16]): > 100 µg/mL
LC50 MG-22A (MG-22A (mouse hepatoma) [5]): do not exhibit cytotoxic properties
CC50 at 72 h [6, 17]: > 100 µg/mL
LD50 [6]: > 2000 mg/kg
NO HT-1080 CV [7]: 4
NO MG-22A CV (MG-22A (mouse hepatoma) [8]): 6

C[Si](C)(C)OC1CCN(CC(=O)Nc2nc(-c3ccccc3)cs2)CC1 [Compound 18, 2-(4-trimethylsiloxypiperidin-1-yl)-N-(4-phenylthiazol-2-yl)-acetamide]
% inhibition LOX ([3]; soybean lipoxygenase): 66.7%

C[Si](C)(C)CCC[n+]1ccsc1N.[I-] [Compound 22, 2-amino-3-(γ-trimethylsilylpropyl)thiazolium iodide]
% carrageenin mice paw edema inhibition (CPE%) ([1]; dose 0.01 mmol/kg, intraperitoneally): 55.0% and 55.0 ^* %
IC50 [3, 12]: 460 µM
